Results from ChEMBL document CHEMBL2303647, “Data associated with the publication PLoS ONE, 8(3), e57888, (2013) PMID: 23505445. Compounds: GSK PKIS; Assays: NIH NCATS”.

What was measured:
[1] = molecular target: Luciferin 4-monooxygenase (Photinus pyralis, UniProt P08659)
Description: GSK_PKIS: Inhibition of Firefly Luciferase (Data from PubChem: AID 652016) [NIH NCATS]

[2] = molecular target: T1, Coelenterazine h 2-monooxygenase (Renilla reniformis, UniProt P27652)
T1 sequence (P27652 whole entry): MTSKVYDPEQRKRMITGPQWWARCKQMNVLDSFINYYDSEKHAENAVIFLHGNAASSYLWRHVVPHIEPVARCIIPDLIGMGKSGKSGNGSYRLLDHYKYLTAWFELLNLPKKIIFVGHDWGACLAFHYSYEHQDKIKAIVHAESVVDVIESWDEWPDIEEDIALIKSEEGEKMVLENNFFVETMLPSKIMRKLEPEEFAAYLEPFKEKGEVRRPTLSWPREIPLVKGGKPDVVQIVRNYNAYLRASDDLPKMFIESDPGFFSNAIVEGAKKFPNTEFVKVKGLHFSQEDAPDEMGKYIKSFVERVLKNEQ
Description: GSK_PKIS: Inhibition of Sea Pansy Luciferase (Data from PubChem: AID 652015) [NIH NCATS]

Chain of Luciferin 4-monooxygenase (P08659 whole entry): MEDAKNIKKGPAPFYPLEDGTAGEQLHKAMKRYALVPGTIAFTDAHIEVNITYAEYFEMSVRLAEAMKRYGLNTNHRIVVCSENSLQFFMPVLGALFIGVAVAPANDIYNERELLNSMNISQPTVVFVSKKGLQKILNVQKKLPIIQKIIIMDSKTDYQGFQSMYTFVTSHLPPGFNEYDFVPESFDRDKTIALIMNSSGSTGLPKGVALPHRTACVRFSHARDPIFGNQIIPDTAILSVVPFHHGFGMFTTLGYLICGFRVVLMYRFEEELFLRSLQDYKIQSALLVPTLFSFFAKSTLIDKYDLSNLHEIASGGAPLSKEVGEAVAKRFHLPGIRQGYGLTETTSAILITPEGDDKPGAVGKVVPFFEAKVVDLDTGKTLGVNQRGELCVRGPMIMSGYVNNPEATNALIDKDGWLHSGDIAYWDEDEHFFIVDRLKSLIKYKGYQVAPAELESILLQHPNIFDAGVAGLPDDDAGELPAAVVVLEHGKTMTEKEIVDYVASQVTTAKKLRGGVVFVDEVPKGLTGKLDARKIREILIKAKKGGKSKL

SMILES | AC50 [1] | AC50 [2] | AC50 ([1]; read-out: AC50) | AC50 ([2]; read-out: AC50)
Cl.c1ccc(-c2nc3n(c2-c2ccc4c(c2)OCO4)CCC3)nc1 | Phenotype: Inactive; Curve_Description: None | Phenotype: Inactive; Curve_Description: None | – | –
COc1ccc(-c2ccc3c(NC(=O)C4CC4)n[nH]c3n2)cc1 | – | Phenotype: Inactive; Curve_Description: None | 2.31 µM | –
CC(C)(CO)CNC(=O)c1ccc2c(c1)/C(=N/Nc1ccc(S(N)(=O)=O)cc1)C(=O)N2 [GW301784X] | – | Phenotype: Inactive; Curve_Description: None | 41.1 µM | –
N#Cc1cccc(Nc2nccc(-c3cnn4ncccc34)n2)c1 [GW778894X] | Phenotype: Inactive; Curve_Description: None | Phenotype: Inactive; Curve_Description: None | – | –
CCn1c(-c2nonc2N)nc2c(C#CCN)ncc(OCCCN)c21.O=C(O)C(F)(F)F [GSK-561866B] | Phenotype: Inactive; Curve_Description: None | – | – | 23.1 µM
Fc1ccc(-c2nn3ccccc3c2-c2ccncc2)cc1 [GW434756X] | – | – | 1.16 µM | 23.1 µM
COC(=O)Nc1nc2ccc(Sc3ccc(NC(=O)Nc4cc(C(F)(F)F)ccc4F)cc3)cc2[nH]1.O=S(=O)(O)O [GW607049C] | Phenotype: Inactive; Curve_Description: None | – | – | 0.0006 µM
CCS(=O)(=O)c1ccc(OC)c(Nc2ncc(-c3cccc(-c4ccccc4F)c3)o2)c1 [GW678313X] | Phenotype: Inactive; Curve_Description: None | Phenotype: Inactive; Curve_Description: None | – | –
Fc1ccc(-c2nn3ncccc3c2-c2ccnc(Nc3ccc4c(c3)OCCO4)n2)cc1 [GW827099X] | – | Phenotype: Inactive; Curve_Description: None | 18.3 µM | –
COc1cc2ncnc(Nc3ccc(C)c(O)c3)c2cc1OC.Cl [GW410563A] | Phenotype: Inactive; Curve_Description: None | Phenotype: Inactive; Curve_Description: None | – | –
c1cnn2ncc(-c3ccnc(Nc4ccc5c(c4)OCCO5)n3)c2c1 [GW806290X] | – | Phenotype: Inactive; Curve_Description: None | 2.91 µM | –
CN(c1ccc(NC(=O)Nc2c(Cl)cccc2Cl)cc1)c1ccnc(Nc2cccc(CS(C)(=O)=O)c2)n1 [GW809897X] | – | Phenotype: Inactive; Curve_Description: None | 0.58 µM | –
COC(=O)Nc1nc2cc(Oc3ccc(NC(=O)Nc4cccc(C(=O)O)c4)cc3)ccc2[nH]1 [GW701427A] | – | – | 0.116 µM | 41.1 µM
Clc1ccc(-c2nn3ncccc3c2-c2ccnc(Nc3ccccc3)n2)cc1 [GW829055X] | Phenotype: Inactive; Curve_Description: None | Phenotype: Inactive; Curve_Description: None | – | –
COc1cccc(-n2ncc3c(N/N=C/c4ccc(S(C)(=O)=O)cc4)ncnc32)c1 [PYRAZOLOPYRIMIDINE 2] | – | Phenotype: Inactive; Curve_Description: None | 18.3 µM | –
COc1cccc(-n2cnc3c(N/N=C/c4ccncc4)ncnc32)c1 [GW813360X] | – | Phenotype: Inactive; Curve_Description: None | 16.3 µM | –
COc1ccc(-c2cc(-c3c[nH]nc3-c3ccccn3)ccn2)cc1 [GW679410X] | – | Phenotype: Inactive; Curve_Description: None | 16.3 µM | –
COc1cc(Nc2nccc(-c3cnn4ncccc34)n2)cc(OC)c1 [GW801372X] | Phenotype: Inactive; Curve_Description: None | Phenotype: Inactive; Curve_Description: None | – | –
CS(=O)(=O)CCNCc1nc(-c2ccc3ncnc(Nc4ccc(OCc5cccc(C(F)(F)F)c5)cc4)c3c2)cs1.Cl [GW569530A] | Phenotype: Inactive; Curve_Description: None | Phenotype: Inactive; Curve_Description: None | – | –
COc1cc(Nc2ncc3c(C)nc(-c4cccc(C(F)(F)F)c4)n3n2)cc(OC)c1OC [GW837331X] | Phenotype: Inactive; Curve_Description: None | Phenotype: Inactive; Curve_Description: None | – | –
O=C1Nc2ccccc2/C1=C/Nc1ccc2[nH]c(=O)[nH]c2c1 [GW284408X] | – | Phenotype: Inactive; Curve_Description: None | 4.11 µM | –
